# Molecular target: T1, human recombinant IL-17A (Homo sapiens, UniProt Q16552)
# T1 construct: purchased R&D Systems 7955-IL/CF
# T1 sequence (Q16552 24-155): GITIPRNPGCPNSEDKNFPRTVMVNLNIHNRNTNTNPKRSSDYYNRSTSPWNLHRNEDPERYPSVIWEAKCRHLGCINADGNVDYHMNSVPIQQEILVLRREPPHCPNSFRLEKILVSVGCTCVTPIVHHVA
# Experiment: IL-17A AlphaLISA assay (block binding of IL-17A to its receptor IL-17RA)
# Settings: compounds pre-incubated with the IL-17A for 30 min (indicated by * in Table A); read-out: AlphaLISA pIC50 (converted)
# Procedure, shortened: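 PBS with 0.05% Tween-20 and 0.1% BSA. IL-17A stock 7.5 nM, IL-17RA/Fc stock 5 nM; compound–cytokine pre-incubation 24 h at RT, or 30 min where marked, then 90 min with receptor. pIC50 from 4-parameter logistic AlphaLISA signal, normalised to DMSO and 6 μM reference inhibitor.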
row,IC50 [nM],SMILES
1,63.1,"CCc1nocc1C(=O)N[C@H](C(=O)Nc1ncc(-c2c(C)noc2C)cc1F)C1CCCCCC1 [Example 164, (S)—N-(1-cycloheptyl-2-((5-(3,5-dimethylisoxazol-4-yl)-3-fluoropyridin-2-yl)amino)-2-oxoethyl)-3-ethylisoxazole-4-carboxamide]"
2,631,"Cc1cnn(C)c1-c1cnc(NC(=O)[C@@H](NC(=O)c2ccnn2C)C2CCCCCC2)nc1 [Example 165, (S)—N-(1-cycloheptyl-2-((5-(1,4-dimethyl-1H-pyrazol-5-yl)pyrimidin-2-yl)amino)-2-oxoethyl)-1-methyl-1H-pyrazole-5-carboxamide]"
3,631,"Cn1nccc1C(=O)N[C@H](C(=O)Nc1ccc(-c2c(O)cnn2C)cn1)C1CCCCCC1 [Example 166, (S)—N-(1-cycloheptyl-2-((5-(4-hydroxy-1-methyl-1H-pyrazol-5-yl)pyridin-2-yl)amino)-2-oxoethyl)-1-methyl-1H-pyrazole-5-carboxamide]"
4,316,"Cc1cnn(C)c1-c1ccc(NC(=O)[C@@H](NC(=O)c2cnnn2C)[C@H]2CC[C@H](C)CC2)nc1 [Example 167, N—((S)-2-((5-(1,4-dimethyl-1H-pyrazol-5-yl)pyridin-2-yl)amino)-1-((1r,4S)-4-methylcyclohexyl)-2-oxoethyl)-1-methyl-1H-1,2,3-triazole-5-carboxamide]"
5,158,"CCn1nncc1C(=O)N[C@H](C(=O)Nc1ccc(-c2c(C)cnn2C)cn1)[C@H]1CC[C@H](C)CC1 [Example 168, N—((S)-2-((5-(1,4-dimethyl-1H-pyrazol-5-yl)pyridin-2-yl)amino)-1-((1r,4S)-4-methylcyclohexyl)-2-oxoethyl)-1-ethyl-1H-1,2,3-triazole-5-carboxamide]"
6,100,"CCn1nccc1C(=O)N[C@H](C(=O)Nc1ccc(-c2c(C)noc2C)nc1)C1CCCCCC1 [Example 169, (S)—N-(1-cycloheptyl-2-((6-(3,5-dimethylisoxazol-4-yl)pyridin-3-yl)amino)-2-oxoethyl)-1-ethyl-1H-pyrazole-5-carboxamide]"
7,158,"Cc1nocc1C(=O)N[C@H](C(=O)Nc1ccc(-c2c(C)noc2C)nc1)C1CCCCCC1 [Example 170, (S)—N-(1-cycloheptyl-2-((6-(3,5-dimethylisoxazol-4-yl)pyridin-3-yl)amino)-2-oxoethyl)-3-methylisoxazole-4-carboxamide]"
8,79.4,"CCc1nocc1C(=O)N[C@H](C(=O)Nc1ccc(-c2c(C)noc2C)nc1)C1CCCCCC1 [Example 171, (S)—N-(1-cycloheptyl-2-((6-(3,5-dimethylisoxazol-4-yl)pyridin-3-yl)amino)-2-oxoethyl)-3-ethylisoxazole-4-carboxamide]"
9,200,"Cc1noc(C)c1-c1ccc(NC(=O)[C@@H](NC(=O)c2ccnn2C)C2CCCCCC2)cn1 [Example 172, (S)—N-(1-cycloheptyl-2-((6-(3,5-dimethylisoxazol-4-yl)pyridin-3-yl)amino)-2-oxoethyl)-1-methyl-1H-pyrazole-5-carboxamide]"
10,158,"Cn1nccc1C(=O)N[C@H](C(=O)Nc1ccc(-c2c(C3CC3)nnn2C)cn1)C1CCCCCC1 [Example 173, (S)—N-(1-cycloheptyl-2-((5-(4-cyclopropyl-1-methyl-1H-1,2,3-triazol-5-yl)pyridin-2-yl)amino)-2-oxoethyl)-1-methyl-1H-pyrazole-5-carboxamide]"
11,158,"Cn1nccc1C(=O)N[C@H](C(=O)Nc1ccc(-c2c(Cl)cnn2C)cn1)C1CCCCCC1 [Example 174, (S)—N-(2-((5-(4-chloro-1-methyl-1H-pyrazol-5-yl)pyridin-2-yl)amino)-1-cycloheptyl-2-oxoethyl)-1-methyl-1H-pyrazole-5-carboxamide]"
12,31.6,"CCc1nocc1C(=O)N[C@H](C(=O)Nc1ccc(-c2c(Cl)cnn2C)cn1)C1CCCCCC1 [Example 175, (S)—N-(2-((5-(4-chloro-1-methyl-1H-pyrazol-5-yl)pyridin-2-yl)amino)-1-cycloheptyl-2-oxoethyl)-3-ethylisoxazole-4-carboxamide]"

# Source: US20230227427A1, “IL-17A MODULATORS” (SANOFI, priority 2010, published 2023)
